According to patent publication US7262289B2, “KCNQ potassium channels and methods of modulating same” (Bristol-Myers Squibb Co., priority 1997, dated 2007):
Like-named read-outs stand apart in the source and are kept apart here.

Tests used:
human KCNQ2/KvLR1 = molecular target: T1, human KCNQ2/KvLR1 (Homo sapiens, UniProt O43526, DEL509-509/N780T); type: cell-based
T1 construct: The full-length human KCNQ2 and KCNQ3 cDNAs were subcloned into a Xenopus expression vector and cRNA was generated by in vitro transcription; expressed in transfected cells; host or cells: Xenopus laevis oocytes (cRNA injection)
Method: Superimposed currents were recorded during 1 second steps to +30 mV, from −80 mV, during the same experiment. Compounds were applied via bath perfusion in order from top to bottom. The bath was perfused with control solution for 5 minutes, or until effects reversed completely, between compounds.
Inhibitors of various potassium channels present in brain and other tissues were used to investigate the pharmacology of KCNQ2/KvLR1.
(§1) Stage V and VI Xenopus laevis oocytes were defolliculated with collagenase treatment and injected with cRNAs, as described in Yang et al., supra. Currents were recorded at room temperature using the two-microelectrode voltage clamp (Dagan TEV-200) technique between 3-5 days after injection of KCNQ2 (15 ng), KCNQ3 (15 ng), or KCNE1 (2 ng) cRNA alone or in combination. Microelectrodes (0.8 to 1.5 MΩ) were filled with 3 M KCl . Bath solution contained (in mM): 96 NaCl, 2 KCl , 0.4-1.8 CaCl2, 1-2 MgCl2 and 5 HEPES (pH 7.5). KCl was varied in some experiments by equimolar substitution with NaCl.
(§2) Axoclamp (Axon Instruments) was used for generating voltage clamp commands and acquiring data and Axograph 3.0 (Axon Instruments) was used for data analysis. All data was sampled at rates at least two times the low pass filter rate. Experiments were performed at 22-25° C.

KCNQ3 = molecular target: T2, KCNQ3 (Homo sapiens, UniProt O43525); type: cell-based
T2 construct: The full-length human KCNQ2 and KCNQ3 cDNAs were subcloned into a Xenopus expression vector and cRNA was generated by in vitro transcription; expressed in transfected cells; host or cells: Xenopus laevis oocytes (cRNA injection)
Method: FIGS. 18A-18D show the functional characterization of KCNQ3 currents. […] Currents were recorded using the protocol in FIG. 18A. […] Each value is the mean±SEM from 6 oocytes. […] Superimposed currents were recorded during 1 sec steps to +20 mV, from −80 mV, during the same experiment. Compounds were applied via bath perfusion in order from top to bottom. The bath was perfused with control solution for 5 min, or until effects reversed completely, between compounds.
as §1, §2

KCNQ2+KCNQ3 = molecular target: T3, KCNQ2+KCNQ3 (Homo sapiens, UniProt O43525+O43526, DEL509-509/N780T); type: cell-based
T3 construct: The full-length cDNAs were subcloned into a Xenopus expression vector, derived from pSP64T plasmid; expressed in transfected cells; host or cells: Xenopus laevis oocytes (co-injection of cRNAs)
Method: FIGS. 19A-19F show co-expression of KCNQ2 and KCNQ3. […] Currents were recorded using the protocol in FIGS. 19A-19C. […] The dashed line has a slope predicted by the Nernst equation for a perfectly selective K^+ channel. Each value is the mean±SEM from 6 oocytes. […] Superimposed currents were recorded during 1 sec steps to +20 mV, from […], during the same experiment. Compounds were applied via bath perfusion in order from top to bottom.
as §1, §2

KCNQ1/KvLQT1 [1] = molecular target: T4, KCNQ1/KvLQT1 (Homo sapiens, UniProt P51787); details: from Yang et al. (1997); cited from earlier work
murine KCNQ2/KvLR1 = molecular target: T5, murine KCNQ2/KvLR1 (Mus musculus, UniProt Q9Z351, DEL481-481/H600Q/P326Q); experiment: murine KCNQ2/KvLR1-mediated whole-cell currents in Xenopus oocytes, 2-electrode voltage clamp; type: cell-based; details: for effect on murine KCNQ2-mediated currents: concentration not given
T5 construct: Also disclosed is a full-length murine cDNA clone of KCNQ2 (murine KvLR1); expressed in transfected cells; host or cells: Xenopus oocytes (cRNA injection)
Method: FIGS. 15A and 15B show electrophysiology characterization of mouse KCNQ2/KvLR1-mediated whole-cell currents expressed in Xenopus oocytes.
To test for functional expression, cRNA was prepared from the murine KCNQ2/KvLR1 gene and injected into Xenopus oocytes. In a two-electrode voltage clamp, a family of outward currents were generated in murine KCNQ2/KvLR1 cRNA-injected oocytes (n>20). After a minimum of 48 hours, currents qualitatively and quantitatively different than native currents generated with identical protocols in water injected or uninjected control cells (representing Ca^2+-activated chloride currents and other native currents) (FIG. 15). […] Similar currents were obtained from CHO cells stably expressing murine KCNQ2 and recorded using patch-clamp techniques. Single channel conductances were estimated to be 24-30 pS in symmetrical 140 mM potassium. (FIG. 22).
The murine KCNQ2/KvLR1 cDNAs were linearized with the restriction enzyme NotI and in vitro transcribed using the mMessage mMachine T7 RNA polymerase kit according to the manufacturer's instructions (Ambion, Austin, Tex.). The cRNAs were solubilized in RNase-free water, and stored at −70° C. at a concentration of 1.0 μg/μl. Frog oocytes were prepared and injected using standard techniques (Colman, 1984). In murine KvLR1 expression experiments, each oocyte was injected with approximately 35-40 nl of the cRNA. Following injection, oocytes were maintained at 17° C., in ND96 medium consisting of (in mM): NaCl, 90; KCl, 1.0; CaCl2, 1.0; MgCl2, 1.0; HEPES, 5.0; pH 7.5. Horse serum and penicillin/streptomycin, both 5% of final volume, were added as supplements to the incubation medium. Electrophysiological recording commenced 2-6 days following cRNA injection. Prior to the start of an experiment oocytes were placed in a recording chamber and incubated in Modified Barth's Solution (MBS) consisting of (in mM): NaCl, 88; NaHCO3, 2.4; KCl, 1.0; HEPES, 10; MgSO4, 0.82; Ca(NO3)2, 0.33; CaCl2, 0.41; pH 7.5. Oocytes were impaled with electrodes (1-2 MΩ) and standard 2-electrode voltage clamp techniques were employed to record whole-cell membrane currents (Stuhmer, 1992; TEC 200, Dagan Instruments). Voltage-clamp protocols typically consisted of a series of voltage steps 100-500 ms duration, in +10 mV steps from a holding potential of −60 mV to −90 mV to a maximal potential of +40 mV to +50 mV; records were digitized at 5 kHz and stored on a computer using pClamp 6.0 software (Axon Instruments), and analyzed using ClampFit or AxoGraph software (Axon Instruments).

minK+human KCNQ2/KvLR1 = minK+human KCNQ2/KvLR1 (Homo sapiens, UniProt O43526); details: 1 mM, steps to +40 mV from −80 mV
Chain of minK+human KCNQ2/KvLR1 (O43526 whole entry): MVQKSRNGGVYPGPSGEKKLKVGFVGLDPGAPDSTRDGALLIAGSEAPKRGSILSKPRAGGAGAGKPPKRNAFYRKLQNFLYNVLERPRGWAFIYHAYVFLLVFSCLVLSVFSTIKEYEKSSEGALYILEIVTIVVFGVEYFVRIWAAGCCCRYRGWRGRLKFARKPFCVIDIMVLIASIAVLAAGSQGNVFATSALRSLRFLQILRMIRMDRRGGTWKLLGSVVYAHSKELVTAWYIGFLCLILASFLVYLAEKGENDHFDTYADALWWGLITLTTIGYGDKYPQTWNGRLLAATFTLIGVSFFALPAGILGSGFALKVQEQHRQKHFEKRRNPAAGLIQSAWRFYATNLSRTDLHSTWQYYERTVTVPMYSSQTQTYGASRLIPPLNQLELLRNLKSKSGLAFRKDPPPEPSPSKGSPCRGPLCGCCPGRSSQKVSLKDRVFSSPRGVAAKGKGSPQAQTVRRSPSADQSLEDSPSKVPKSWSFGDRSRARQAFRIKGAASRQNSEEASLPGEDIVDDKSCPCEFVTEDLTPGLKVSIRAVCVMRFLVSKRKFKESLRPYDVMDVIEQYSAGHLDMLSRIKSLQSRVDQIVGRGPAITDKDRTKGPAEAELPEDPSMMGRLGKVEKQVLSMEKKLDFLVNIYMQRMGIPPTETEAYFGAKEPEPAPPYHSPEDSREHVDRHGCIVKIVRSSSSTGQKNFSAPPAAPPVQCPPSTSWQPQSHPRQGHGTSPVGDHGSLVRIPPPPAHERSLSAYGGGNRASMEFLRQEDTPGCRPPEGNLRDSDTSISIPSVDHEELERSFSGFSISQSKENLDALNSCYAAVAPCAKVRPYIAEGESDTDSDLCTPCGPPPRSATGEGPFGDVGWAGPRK
Method: as §1

KCNQ1/KvLQT1 [2] = molecular target: T4, KCNQ1/KvLQT1; experiment: KCNQ1/KvLQT1 currents (comparison); type: cell-based; details: no citation, concentration not given
[3] = 10 μM, steps to +30 mV from −80 mV

Nc1ccncc1 [4-AP, 4-aminopyridine]
effect on KCNQ2/KvLR1 current (human KCNQ2/KvLR1; 0.2 mM): Neither E-4031 nor 4-AP produced significant effects
effect on KCNQ3 current (KCNQ3; 2 mM): no effect
sensitivity of KCNQ2+KCNQ3 current to inhibition (KCNQ2+KCNQ3; 2 mM): not
inhibition of KCNQ1/KvLQT1 currents (KCNQ1/KvLQT1 [1]): do not inhibit

Cc1cccc(CCN2CCC(C(=O)c3ccc(NS(C)(=O)=O)cc3)CC2)n1 [E-4031]
effect on KCNQ2/KvLR1 current (human KCNQ2/KvLR1; [3]): Neither E-4031 nor 4-AP produced significant effects
effect on KCNQ3 current (KCNQ3; 10 μM): no effect
sensitivity of KCNQ2+KCNQ3 current to inhibition (KCNQ2+KCNQ3; 10 μM): did not inhibit
inhibition of KCNQ1/KvLQT1 currents (KCNQ1/KvLQT1 [1]): do not inhibit

CC[N+](CC)(CC)CC [TEA, tetraethylammonium]
effect on KCNQ2 current (human KCNQ2/KvLR1): strongly inhibited
effect on KCNQ3 current (KCNQ3): little inhibition
sensitivity of KCNQ2+KCNQ3 current to inhibition (KCNQ2+KCNQ3): weakly sensitive to inhibition
block of murine KCNQ2/KvLR1-mediated currents (murine KCNQ2/KvLR1): blocked
effect on minK+human KCNQ2/KvLR1 currents (minK+human KCNQ2/KvLR1): partially inhibited

CCCCCCC[N+](CC)(CC)CCCCc1ccc(Cl)cc1 [clofilium]
effect on KCNQ2/KvLR1 current (human KCNQ2/KvLR1; [3]): little effect
reduction of KCNQ3 current from control (KCNQ3; 10 μM): 30%
sensitivity of KCNQ2+KCNQ3 current to inhibition (KCNQ2+KCNQ3; 10 μM): weakly sensitive to inhibition
block of murine KCNQ2-mediated currents (murine KCNQ2/KvLR1; 20 μM, depolarized from −80 to +40): partially block
inhibition of KCNQ1/KvLQT1 currents (KCNQ1/KvLQT1 [1]): strong inhibitor

Charybdotoxin
effect on KCNQ2/KvLR1 current (human KCNQ2/KvLR1; 0.1 mM (concentration tested)): did not inhibit
effect on KCNQ3 current (KCNQ3; 100 nM): no effect
sensitivity of KCNQ2+KCNQ3 current to inhibition (KCNQ2+KCNQ3; 100 nM): not
effect on murine KCNQ2-mediated currents (murine KCNQ2/KvLR1): no significant effect
effect on KCNQ1/KvLQT1 (KCNQ1/KvLQT1 [2]): no effect

iberiotoxin: specific K+ channel blocking toxin (QFTDVDCSVSKECWSVCKDLFGVDRGKCMGKKCRCYQ)
effect on murine KCNQ2-mediated currents (murine KCNQ2/KvLR1): no significant effect

α-dendrotoxin (QPRRKLCILHRNPGRCYDKIPAFYYNQKKKQCERFDWSGCGGNSNRFKTIEECRRTCIG)
effect on murine KCNQ2-mediated currents (murine KCNQ2/KvLR1): no significant effect
